According to PubChem BioAssay (NCI):
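Grown in 96-well plates, cells were treated for 48 hours with each compound at five concentrations. Insufficient inhibition: endpoint recorded as highest concentration tested. At the TGI there is no net growth.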

What was measured:
Assay in all cases: inhibition of tumour cell growth, NCI panel, 48 h
[1] = test system: 786-0 renal
[2] = test system: A498 renal
[3] = test system: A549 NSCLC
[4] = test system: ACHN renal
[5] = test system: CAKI-1 renal
[6] = test system: CCRF-CEM leukemia
[7] = test system: COLO 205 colon
[8] = test system: DU-145 prostate
[9] = test system: EKVX NSCLC
[10] = test system: HCC-2998 colon
[11] = test system: HCT-15 colon
[12] = test system: HL-60(TB) leukemia
[13] = test system: HOP-62 NSCLC
[14] = test system: HOP-92 NSCLC
[15] = test system: HS 578T breast
[16] = test system: HT29 colon
[17] = test system: IGROV1 ovarian
[18] = test system: K-562 leukemia
[19] = test system: KM12 colon
[20] = test system: LOX IMVI melanoma
[21] = test system: M14 melanoma
[22] = test system: MALME-3M melanoma
[23] = test system: MCF7 breast
[24] = test system: MDA-MB-231 breast
[25] = test system: MDA-MB-435
[26] = test system: MDA-N
[27] = test system: MOLT-4 leukemia
[28] = test system: NCI-H226 lung
[29] = test system: NCI-H23 lung
[30] = test system: NCI-H460 lung
[31] = test system: NCI-H522 lung
[32] = test system: NCI/ADR-RES ovarian
[33] = test system: OVCAR-3 ovarian
[34] = test system: OVCAR-4 ovarian
[35] = test system: OVCAR-5 ovarian
[36] = test system: OVCAR-8 ovarian
[37] = test system: PC-3 prostate
[38] = test system: RPMI-8226 leukemia
[39] = test system: RXF 393 renal
[40] = test system: SF-268 CNS
[41] = test system: SF-295 CNS
[42] = test system: SF-539 CNS
[43] = test system: SK-MEL-2 melanoma
[44] = test system: SK-MEL-28 melanoma
[45] = test system: SK-MEL-5 melanoma
[46] = test system: SK-OV-3 ovarian
[47] = test system: SNB-19 CNS
[48] = test system: SNB-75 CNS
[49] = test system: SW-620 colon
[50] = test system: T-47D breast
[51] = test system: TK-10 renal
[52] = test system: U251 CNS
[53] = test system: UACC-257 melanoma
[54] = test system: UACC-62 melanoma
[55] = test system: UO-31 renal

Measured: TGI

COC(=O)C1C(=O)N(C)C(=O)N2CCCC12 (stereo not given)
> 100 µM: all assays above
